Assay results from US9828375B2, “4-position substituted pyrazolopyrimidine derivative, and use thereof in drug preparation” (Guangxi Wuzhou Pharmaceuticals (Group) Co., Ltd., priority 2012, dated 2017).

Key:
[1] = tested on: human gastric carcinoma cell line MKN-45; test: In vitro tumor cell proliferation inhibition (MTT): MKN-45; assay type: cell-based; conditions: 72 hours
Outline: (§1)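 Cells seeded at 1-2×10^4/mL, cultured overnight, then exposed to graded compound concentrations (0.1% DMSO) for 72 h at 37° C., 5% CO2, triplicate wells. MTT added for 2-4 h, formazan dissolved in DMSO, absorbance read at 570 nm; IC50 or inhibition rate from ≥3 repeats.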

[2] = tested on: human leukemia cell line K562; test: In vitro tumor cell proliferation inhibition (MTT): K562; assay type: cell-based; conditions: 72 hours
Outline: as §1

c-KIT = c-KIT (Homo sapiens, UniProt P10721); test: Kinase inhibition activity test, isotope labeling: c-KIT; assay type: biochemical; conditions: test compound at a concentration of 10 μM
Description: The purpose of this experiment was to test the inhibitory activity of the compound of the invention for in vitro kinase with the isotope labeling method (the γ phosphate group on ATP was labeled). In this experiment, the in vitro activity inhibition of such kinases as FLT3, VEGFR2, FLT1, FLT4, RET, c-RAF, B-RAF, c-KIT, PDGFα, PDGFβ, FGFR2, FGFR1, EphA2, EphB2, SRC, ABL, ALK and Met was tested respectively. Staurosporine was reference molecule (or referred to as positive control). The kinase inhibition activity of the test compound was expressed by half-inhibitory concentration (IC50) or the kinase activity inhibition rate of the test compound at a concentration of 10 μM. The IC50 value could be obtained by calculating the kinase activity inhibition rate of the test compound at different concentrations.
20 mM 3-(N-morpholinyl)propanesulfonic acid (MOPS); 1 mM ethylenediaminetetraacetic acid (EDTA), 0.01% Brij 35 (Brij-35), 5% glycerol, 0.1% mercaptoethanol, 1 mg/mL bovine serum albumin (BSA), 10 mM manganous dichloride solution (MnCl2), 0.1 mg/mL glutamic acid/tyrosine (4:1) polypeptide (poly(Glu, Tyr)4:1), 50 μM EAIYAAPFAKKK (substrate of FLT3), 0.33 mg/mL myelin basic protein (substrate of VEGFR2), 250 μM KKKSPGEYVNIEFG (substrate of FLT1(h)), 500 μM GGEEEEYFELVKKKK (substrate of FLT4(h)), 250 μM KKKSPGEYVNIEFG (substrate of RET), 0.66 mg/mL myelin basic protein (substrate of C-RAF), 250 μM GGMEDIYFEFMGGKKK (substrate of c-Kit), 250 μM GGMEDIYFEFMGGKKK (substrate of PDGFα), 250 μM KKKSPGEYVNIEFG (substrate of FGFR1), […] GGEEEEYFELVKKKK (substrate of SRC), 50 μM EAIYAAPFAKKK (substrate of ABL), 250 μM KKKSPGEYVNIEFG (substrate of ALK), 250 μM KKKSPGEYVNIEFG (substrate of Met(h)), 10 mM magnesium acetate and γ-^33 P-ATP solution, stop buffer (3% phosphate buffer), washing buffer (75 mM phosphate solution), methanol, Filtermat A membrane, FLT3, VEGFR2, FLT3, VEGFR2, FLT1, FLT4, RET, c-RAF, B-RAF, c-KIT, PDGFRα, PDGFRβ, FGFR2, FGFR1, EphA2, EphB2, SRC, ABL, ALK, Met and other kinases, and the test compounds.
Buffers (8 mM MOPS with pH value of 7.0, 0.2 mM EDTA and 10 mM MnCl2), (5-10 mU) kinases to be tested (FLT3, VEGFR2, FLT1, FLT4, RET, c-RAF, B-RAF, c-KIT, PDGFRα, PDGFRβ, FGFR2, FGFR1, EphA2, EphB2, SRC, ABL, ALK and Met), substrates of kinases to be tested (refer to experimental materials), 10 mM magnesium acetate and γ-^33 P-ATP solution, and test compounds at different concentrations were added to a reaction tube orderly. […] Reaction was terminated with 5 μL 3% phosphate buffer finally, and 10 μL reaction solution was titrated to the Filtermat A membrane; solution was washed for 3 times with 75 mM phosphate solution with each time lasting 5 minutes, and then washed once with methanol. Finally, the Filtermat A membrane was dried, and scintillation counting was performed on the membrane, with scintillation count reflecting the phosphorylation degree of the substrates, so that the activity inhibition of kinase could be characterized.

[3] = tested on: human leukemia cell line MV4-11; test: In vitro tumor cell proliferation inhibition (MTT): MV4-11; assay type: cell-based; conditions: 72 hours
Outline: as §1

[4] = tested on: human leukemia cell line Jurkat; test: In vitro tumor cell proliferation inhibition (MTT): Jurkat; assay type: cell-based; conditions: 72 hours
Outline: as §1

[5] = tested on: human cervical carcinoma cell line HELA; test: In vitro tumor cell proliferation inhibition (MTT): HELA; assay type: cell-based; conditions: 72 hours
Outline: as §1

[6] = tested on: human malignant melanoma cell line A875; test: In vitro tumor cell proliferation inhibition (MTT): A875; assay type: cell-based; conditions: 72 hours
Outline: as §1

Sequence of c-KIT (P10721 26-976): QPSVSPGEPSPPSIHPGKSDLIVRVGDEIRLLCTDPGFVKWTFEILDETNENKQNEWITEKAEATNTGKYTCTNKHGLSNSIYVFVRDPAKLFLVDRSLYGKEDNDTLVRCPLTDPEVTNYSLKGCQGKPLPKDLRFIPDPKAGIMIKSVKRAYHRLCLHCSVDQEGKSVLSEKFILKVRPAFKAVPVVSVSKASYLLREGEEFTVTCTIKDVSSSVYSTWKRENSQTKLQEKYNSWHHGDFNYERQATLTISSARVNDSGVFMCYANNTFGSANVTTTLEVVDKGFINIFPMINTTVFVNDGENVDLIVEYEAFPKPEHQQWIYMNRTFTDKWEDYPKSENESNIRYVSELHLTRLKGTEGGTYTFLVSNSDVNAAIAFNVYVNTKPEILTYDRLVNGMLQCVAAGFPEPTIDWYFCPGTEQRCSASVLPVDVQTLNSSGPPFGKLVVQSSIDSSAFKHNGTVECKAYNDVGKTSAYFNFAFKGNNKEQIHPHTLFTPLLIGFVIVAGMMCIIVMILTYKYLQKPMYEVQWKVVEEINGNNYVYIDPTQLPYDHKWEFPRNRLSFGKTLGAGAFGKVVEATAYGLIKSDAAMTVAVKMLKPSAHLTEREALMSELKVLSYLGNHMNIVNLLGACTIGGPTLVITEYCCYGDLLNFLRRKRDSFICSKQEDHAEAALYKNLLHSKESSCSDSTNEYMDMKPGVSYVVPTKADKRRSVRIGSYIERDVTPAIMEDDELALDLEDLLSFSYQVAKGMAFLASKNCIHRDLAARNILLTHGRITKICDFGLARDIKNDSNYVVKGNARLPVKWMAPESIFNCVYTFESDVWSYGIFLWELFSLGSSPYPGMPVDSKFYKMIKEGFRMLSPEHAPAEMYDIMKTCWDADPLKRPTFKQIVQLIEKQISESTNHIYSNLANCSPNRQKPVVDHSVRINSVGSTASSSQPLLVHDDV

IC50 [1] [µM]	IC50 [2] [µM]	Activity inhibition rate c-Kit (h) (c-KIT) [%]	IC50 [3] [nM]	IC50 [4] [µM]	IC50 [5] [µM]	IC50 [6] [µM]	Structure (SMILES)
< 50	< 50	>30	2050	< 50	< 50	< 50	C[C@H](NC(=O)Nc1ccc(Nc2ncnc3[nH]ncc23)cc1)c1ccccc1 [4b-4]
3 to 10	< 50	>90	< 1000	< 50	< 50	< 50	CC(C)(C)c1cc(NC(=O)Nc2ccc(Sc3ncnc4[nH]ncc34)cc2)no1 [4c-3, 1-(4-(1H-pyrazolopyrimidine-4-sulfydryl)phenyl)-3-(5-tert-butylisoxazol-3-yl)urea]
